Measurements: patent publication US10259827B2, “BMP potentiators” (NOVARTIS AG, priority 2016, dated 2019)

Legend:
[1] = test system: C2C12-IDBRE-luciferase cells; experiment: BMP activity, C2C12-IDBRE-luciferase reporter assay; assay type: cell-based; settings: 24 hours after treatment, 100% activity = luminescence 200% of DMSO control, read-out: Qualified absolute AC50
Experimental: C2C12-IDBRE-luciferase reporter line was established by infecting C2C12 cells with lentiviruses with IDBRE-luciferase pLenti6 plasmid with Blasticidin resistance.
C2C12-IDBRE-luciferase cells were plated to 384-well plate at 5000 cells in 36 μl DMEM plus 10% FBS at day 0. Cells were treated with different doses of compounds at day 1. Bright-Glo™ Luciferase Assay (Promega, catalog # E2650) was performed with EnVision plate reader (PerkinElmer) 24 hours after treatment at day 2. 0% activity is equal to DMSO control. 100% activity means Luminescence reading for a compound is 200% of luminescence reading of DMSO control. The formula to calculate the activity is: 100*(Luminescence_compound−Luminescence_DMSO)/Luminescence_DMSO

[2] = test system: 293T-NFAT-luciferase cells; experiment: Calcineurin inhibition, 293T-NFAT-luciferase reporter assay; assay type: cell-based; settings: 293T-NFAT-luciferase cells co-treated with 100 ng/ml PMA and 1 μM Ionomycin, 24 hours after treatment; read-out: NFAT-luc IC50
Experimental: NFAT-luciferase reporter line was established by transfecting NFAT-luciferase/pTranslucent (Panomics #LR0050) and Puromycin-resistance plasmid together into 293T cells.
293T-NFAT-luciferase cells were plated to 384-well plate at 10000 cells in 32 μl DMEM plus 10% FBS at day 0. Cells were treated with different doses of compounds at day 1. Half an hour after compound treatment, 293T-NFAT-luciferase cells were co-treated with 100 ng/ml PMA (PHORBOL 12-MYRISTATE 13-ACETAT, Sigma, catalog #P8139-1MG) and 1 μM Ionomycin (Sigma, catalog #10634-1MG). Bright-Glo™ Luciferase Assay (Promega, catalog # E2650) was performed with EnVision plate reader (PerkinElmer) 24 hours after treatment at day 2.

Row | Compound | AC50 [1] | IC50 [2]
1 | CO[C@H]1C[C@@H](C)C/C(C)=C/[C@@H](C/C=C/C2(O)COC2)C(=O)C[C@H](O)[C@@H](C)[C@@H](/C(C)=C/[C@@H]2CC[C@@H](O)[C@H](OC)C2)OC(=O)[C@@H]2CCCCN2C(=O)C(=O)[C@]2(O)O[C@H]1[C@@H](OC)C[C@H]2C [Compound A] | 91 nM | > 50000 nM
2 | CC[C@H]1C(=O)C[C@H](O)[C@@H](C)[C@@H](/C(C)=C/[C@@H]2CC[C@@H](O)[C@H](OC)C2)OC(=O)[C@@H]2CCCCN2C(=O)C(=O)[C@]2(O)O[C@H]([C@@H](OC)C[C@@H](C)C[C@@]3(C)O[C@H]13)[C@@H](OC)C[C@H]2C [Compound B] | 24 nM | > 50000 nM
3 | CC[C@H]1C(=O)C[C@H](O)[C@@H](C)[C@@H](/C(C)=C/[C@@H]2CC[C@@H](O)[C@H](OC)C2)OC(=O)[C@@H]2CCCCN2C(=O)C(=O)[C@]2(O)O[C@H]([C@@H](OC)C[C@@H](C)C[C@]3(C)O[C@@H]13)[C@@H](OC)C[C@H]2C [Compound C] | 201 nM | 33 nM
4 | C=CC[C@@H]1/C=C(\C)C[C@H](C)C[C@H](OC)[C@H]2O[C@@](O)(C(=O)C(=O)N3CCCC[C@H]3C(=O)O[C@H](/C(C)=C/[C@@H]3CC[C@@H](O)[C@H](OC)C3)[C@H](C)[C@@H](O)CC1=O)[C@H](C)C[C@@H]2OC [FK-506, reference compound] | 24 nM | 0.05 nM
